Reference: patent US8110569B2, “Enantiomerically pure S-etifoxine, pharmaceutical compositions thereof and methods of their use” (The Regents of the University of California, priority 2006, dated 2012)

Tests used:
[1] = In vivo racemization study, plasma enantiomers by chiral LC-MS/MS; set-up: species or system mouse; conditions: 30 mg/kg perorally, NSA mice, plasma 30 minutes post dose; FIG. 6A
Protocol: Pure S-etifoxine was administered at 30 mg/kg, perorally, to NSA mice. The desired enantiomer was dissolved in PEG at a concentration of 15 mg/mL and a dose of 2 mL/kg was administered perorally to overnight fasted mice. Plasma concentration of etifoxine enantiomers was determined by LC-MS/MS analysis.
A mixture of 100 μL plasma and 200 μL water in a 6-mL plastic culture tube was vortexed briefly, for about 10 seconds. To this was added 1.5 mL methyl tert-butyl ether and 1.5 mL hexane and vortexed briefly for about 10 seconds. The mixture was centrifuged for about 10 minutes and frozen at −80° C. for 10 minutes. The organic layer was collected and dried under nitrogen at 37° C. The solid was resuspended in 250 μL methanol, vortexed and transferred to 96-well plate.
The samples were analyzed by LC-MS/MS on a […] CHIRALCEL® OD (lot #OD00CE-FJ033) column at room temperature. A mixture of 75% hexane, 25% isopropyl alcohol and 0.05% […] was used as an isocratic mobile phase. The flow rate was set at 1 mL/min at room temperature. Racemic etifoxine spiked into plasma was used as a reference standard. FIGS. 6A and 6B provide representative chromatograms of extracted plasma sample (pure S-etifoxine, dosed at 30 mg/kg/po at 30 minutes post dose) and racemic standard spiked into plasma (100 ng/mL), respectively. […]

[2] = test system: mouse formalin pain model; assay: Mouse formalin test, late phase licking (analgesic effect); assay type: in vivo; conditions: 3 mg/kg i.p., 30 minutes prior to formalin; male NSA mice; FIG. 5
Protocol: The analgesic effect of test compounds was assessed in a mouse formalin pain model (Hole et al., 1993, Pain 53:247-254). Male NSA mice weighing between 27 and 30 g were housed with access to food and water ad libitum until the test date. On the day of testing, they were given a period of 1 h to adjust to the test chamber. Test compounds or vehicle control (75% polyethylene glycol in 5% dextrose+water) were administered i.p. at 30 minutes prior to the administration of formalin. A solution of 20 μl of 2.5% formalin was then injected subcutaneously into the dorsal side of the hind paw of the test mouse. Immediately following formalin injection, the mice were observed over the next 50 min and the time spent licking the injected hind paw was recorded. The observation time was broken down into 5 minute “bins”, with 10 bins in total. The first 5-min bin is the early phase, considered to be reflective of acute pain. Bins three to ten make up the late phase, considered a measure of chronic inflammatory pain. The results for the late phase are expressed as the averaged mean time (in seconds) that mice spent licking in a 5-min period.
Dose-response relationship was conducted in the range of 3 to 60 mg/kg. Statistical differences in response were determined by one-way analysis of variance with the Dunnett's post-hoc test by using the Prism3 statistical software (GraphPad, Inc., San Diego, Calif.).

[3] = test system: α1β1-3γ2L GABAA receptors; assay: Modulation of GABA-evoked currents in Xenopus oocytes (2-electrode voltage clamp), GABA subunit selectivity; assay type: cell-based; conditions: human GABAA receptor subunits expressed in Xenopus oocytes; for GABA subunit selectivity: GABA EC10 control currents, FIGS. 4A and 4B
Protocol: GABA subunit selectivity of etifoxine enantiomers was measured based on their ability to modulate the GABA-evoked currents in Xenopus oocytes.
Receptor mRNA preparation: cDNA clones encoding human GABAA receptor subunits were obtained from commercial sources. mRNA was prepared using conventional techniques with commercially-available “mMessage machine” kits (Ambion). Individual mRNAs (˜1 μg/μL) were stored in aliquots at −80° C.
mRNA injections into Xenopus oocytes: Preparation and micro-injection of oocytes were performed as reported in detail previously (see, Whittemore et al., 1996, Mol Pharmacol 50: 1364-1375). Individual oocytes were injected with 5-50 ng of mRNA at 5:1:1 (GABA). For example, individual oocytes were injected with a 5:1:1 mixture of α1, β1-3, and γ2L (˜5-50 ng of each subunit per cell) to produce expression of α1β1-3γ2L GABAA receptors. Following injections, oocytes were maintained at 16-17° C. in Barth's medium containing (in mM): NaCl, 88; KCl, 1; CaCl2, 0.41; Ca(NO3)2, 0.33; MgSO4, 0.82; NaHCO3, 2.4; HEPES 5; pH=7.4, with 0.1 mg/ml gentamycin sulfate.
Oocyte Electrophysiological recordings: Individual oocytes were placed on a nylon mesh in a 35 mm dish, perfused with frog Ringer (see, Whittemore et al., supra), and voltage clamped at a holding potential of −70 mV. In some cases, simple voltage steps were made to test voltage-dependence. Oocytes were perfused with fresh Ringer or exposed to GABA ±modulators using a custom-made gravity-driven perfusion system consisting of a linear array of 3 capillary tubes. The concentration of GABA used to evoke control currents was adjusted for each individual oocyte to be ˜10% of the maximal current (EC10) measured in that cell. The concentration of GABA required to evoke EC10 ‘control’ currents varied between ˜2 and 12 μM. […] Data are expressed as % of control currents (% modulation=100*[(modulated current/GABA control current)−1].

| SMILES | racemization in vivo (R-etifoxine in plasma) [1] | activity in the formalin test (late phase licking) [2] | selectivity between β2 and β1 subunit ([3]; FIG. 4B) | GABA subunit selectivity [3] |
| --- | --- | --- | --- | --- |
| CCNC1=Nc2ccc(Cl)cc2C(C)(c2ccccc2)O1 (centres unmarked) [S-etifoxine] | little or no racemization in vivo | active | more selective for β2 subunit than β1 subunit | shows selectivity for GABA receptor comprising β subunit |
| CCN=C1Nc2ccc(Cl)cc2[C@@](C)(c2ccccc2)O1 [R-etifoxine] |  |  |  | little or no GABA subunit selectivity |
